# “And” between values parts separate entries of the source, which are not always exact repeats. Equal values may be shown once. Non-standard residues stand in square brackets, D forms with d. Residues, ends and D or L forms follow the SMILES beside them. *: point of attachment. sY = N[C@@H](Cc1ccc(OS(=O)(=O)O)cc1)C(=O)O; OCH2CH2Ph = c1ccc(CCO*)cc1; Nle = CCCC[C@H](N)C(=O)O
# T1: type 1 cholecystokinin receptor (CCK1R) (UniProt P32238)
# T1 sequence: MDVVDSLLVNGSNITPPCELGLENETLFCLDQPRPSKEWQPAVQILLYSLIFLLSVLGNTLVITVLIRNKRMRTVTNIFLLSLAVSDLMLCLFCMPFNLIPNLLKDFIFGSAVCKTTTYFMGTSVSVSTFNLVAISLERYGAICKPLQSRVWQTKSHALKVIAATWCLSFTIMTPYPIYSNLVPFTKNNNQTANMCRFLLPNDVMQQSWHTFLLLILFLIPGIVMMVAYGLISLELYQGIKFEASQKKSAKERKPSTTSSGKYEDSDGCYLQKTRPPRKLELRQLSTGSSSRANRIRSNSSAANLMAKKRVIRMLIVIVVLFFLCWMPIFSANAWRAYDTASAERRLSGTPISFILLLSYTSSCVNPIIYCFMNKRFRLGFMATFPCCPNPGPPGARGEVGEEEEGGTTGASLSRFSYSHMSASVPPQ
# T2: CCK1R (Homo sapiens, UniProt P32238)
# T2 sequence (P32238 1-428): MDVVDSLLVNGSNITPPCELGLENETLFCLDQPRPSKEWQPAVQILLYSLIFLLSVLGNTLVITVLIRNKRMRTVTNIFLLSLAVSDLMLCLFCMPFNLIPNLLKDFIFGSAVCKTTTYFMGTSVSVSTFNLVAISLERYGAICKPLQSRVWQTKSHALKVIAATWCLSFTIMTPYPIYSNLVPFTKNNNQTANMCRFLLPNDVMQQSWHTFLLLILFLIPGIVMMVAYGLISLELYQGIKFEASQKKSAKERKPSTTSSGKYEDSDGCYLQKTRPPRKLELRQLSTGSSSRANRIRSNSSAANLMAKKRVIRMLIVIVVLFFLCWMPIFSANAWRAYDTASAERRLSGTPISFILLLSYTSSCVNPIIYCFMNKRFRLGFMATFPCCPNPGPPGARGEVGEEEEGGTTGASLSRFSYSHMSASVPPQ
# What was measured:
# [1] = target: T1, type 1 cholecystokinin receptor (CCK1R)
# CCK1R [2] = target: T2, CCK1R; assay: Intracellular calcium assay (Fura-8-AM) in CHO-CCK1R cells; format: cell-based; parameters: expressed in transfected cells; conditions: CHO-CCK1R cells, agonist alone; mean ± SEM
# Experimental: Biological activity was quantified in the CHO cell lines described above using intracellular calcium assays that were performed, as previously described, using Fura-8-AM (AAT Bioquest, Pleasonton, CA, USA). Full agonist dose–response curves were performed along with determination of maximal responses to 0.1 mM ATP, targeting an endogenous receptor present on the parental cells. Concentration–response curves of peak intracellular calcium responses were analyzed and plotted as percentages of maximal responses using non-linear regression analysis in Prism 9.1 (GraphPad).
# CCK1R [3] = target: T2, CCK1R; assay: IP-One accumulation TR-FRET assay, agonist format, HEK-293 CCK1R cells; format: cell-based; parameters: expressed in transfected cells; host or cells: HEK-293; conditions: for Emax: HEK293, relative to CCK control, average ± SD, read-out: CCK1R Ago (IP-One) Emax
# Outline: (§1)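 HEK-293 cells overexpressing CCK1R were plated overnight, then given compounds (top 50 µM, 16-point 2-fold) for 30 min at 37 °C. CCK stimulator with 50 mM LiCl (PAM format) or DMSO (agonist format) followed for 1 h. IP-One was read by TR-FRET; activity score = CCK-normalized Emax × pEC50.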
# [4] = target: T3, vasopressin-2 receptor (AVP2R) (Homo sapiens, UniProt P30518); assay: AVP2R cAMP HTRF accumulation assay; format: cell-based; conditions: for AVP2R PAM (cAMP) Score (activity score = normalized Emax × pEC50) / EC50 / Emax: CHO-K1 AVP2R cells; for EC50 / Emax: PAM format with vasopressin, original hits: agonist and PAM data combined, average ± SD
# T3 construct: expressed in transfected cells; host or cells: CHO-K1 (PAM format); HEK-293 (agonist format)
# Outline: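 CHO-K1 AVP2R cells (PAM format) or HEK-293 AVP2R cells (agonist format) incubated 30 min at room temperature with compounds and vasopressin in HBSS with 5 mM HEPES, 0.5 mM IBMX, 0.075% BSA. cAMP read by HTRF after 30 min; 16-point 2-fold dose–response in duplicate.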
# CCK1R [5] = target: T2, CCK1R; assay: IP-One accumulation TR-FRET assay, PAM format, HEK-293 CCK1R cells; format: cell-based; parameters: expressed in transfected cells; host or cells: HEK-293; conditions: for Emax: HEK293, relative to CCK control; for Emax / CCK1R PAM (IP-One) Score (activity score = normalized Emax × pEC50): PAM format; for CCK1R IP-One activity (in words): PAM and agonist formats
# Outline: as §1
# [6] = HEK-293 CCK1R cells, average ± SD
# T3 sequence (P30518 whole entry): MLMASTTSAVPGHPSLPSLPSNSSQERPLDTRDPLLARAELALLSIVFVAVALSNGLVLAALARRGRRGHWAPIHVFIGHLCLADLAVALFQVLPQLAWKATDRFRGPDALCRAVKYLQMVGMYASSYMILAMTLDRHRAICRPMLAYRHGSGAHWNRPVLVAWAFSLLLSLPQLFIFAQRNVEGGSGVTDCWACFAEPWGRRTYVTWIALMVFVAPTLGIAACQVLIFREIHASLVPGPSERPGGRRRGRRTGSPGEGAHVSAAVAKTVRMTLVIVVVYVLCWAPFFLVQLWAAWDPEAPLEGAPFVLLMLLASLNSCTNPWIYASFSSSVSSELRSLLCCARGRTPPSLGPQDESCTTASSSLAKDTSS
Molecule,"pEC50 of intracellular calcium response (Fura-8-AM), CHO-CCK1R cells [1]","pEC50 of intracellular calcium response (Fura-8-AM), CHO-CCK1R cells, with 10 µM hit 1 [1]","pEC50 of intracellular calcium response (Fura-8-AM), CHO-CCK1R cells, with 10 µM hit 6 [1]",pEC50 agonist-induced intracellular calcium response (CCK1R [2]),CCK1R Ago (IP-One) Score (activity score = normalized Emax × pEC50) (CCK1R [3]),Emax (CCK1R [3]),AVP2R PAM (cAMP) Score (activity score = normalized Emax × pEC50) ([4]; PAM format),EC50 [4],Emax [4],AVP2R cAMP response (in words) ([4]; PAM format),Emax (CCK1R [5]; [6]),CCK1R PAM (IP-One) Score (activity score = normalized Emax × pEC50) (CCK1R [5]; HEK-293 CCK1R cells),"EC50 (CCK1R [5]; HEK-293 CCK1R cells, PAM format with EC20 CCK, average ± SD)",CCK1R IP-One activity (in words) (CCK1R [5])
"D-Tyr-Gly-[(Nle^28,31)CCK-26-32]-phenethyl ester (peptide)",7.3,8,8.1,–,–,–,–,–,–,–,–,–,–,–
"CCCC[C@H](NC(=O)[C@H](Cc1ccc(OS(=O)(=O)O)cc1)NC(=O)[C@H](CC(=O)O)NC(=O)CNC(=O)[C@H](N)Cc1ccc(O)cc1)C(=O)NCC(=O)N[C@@H](Cc1c[nH]c2ccccc12)C(=O)N[C@@H](CCCC)C(=O)N[C@@H](CC(=O)O)C(=O)OCCc1ccccc1 [CCK-OPE, D-Tyr-Gly-[(Nle^28,31)CCK-26-32]-phenethyl ester, reference compound] (H-[dY]GD[sY][Nle]GW[Nle]D-OCH2CH2Ph; N-terminus assumed)",–,–,–,7.3 ± 0.2,–,–,–,–,–,–,–,–,–,–
COc1ccc(NC(=O)CSc2ncnc3c2sc2nc(N4CCOCC4)c4c(c23)CCCC4)cc1 [CMP-40],–,–,–,–,0,0%,5.33,2.9 ± 0.1 µM,96 ± 9%,strong activation of AVP2R-mediated cAMP accumulation,0%,0,–,–
CC(C)Cc1nc2oc3c(NCCN(C)C)ncnc3c2c2c1CCC2 [CMP-21],–,–,–,–,0,–,1.7 and 1.74,22.8 ± 3.8 µM,37 ± 4%,–,45 ± 23%,1.9,23.8 ± 10.5 µM,–
c1ccc(CCNc2ncnc3c2sc2nc(N4CCOCC4)c4c(c23)CCCC4)cc1 [CMP-42],–,–,–,–,0,0%,0,–,0%,–,0%,0,–,None of these analogs showed any CCK1R activity
CCN(CC)c1ncnc2c1sc1nc(N3CCOCC3)c3c(c12)CCCC3 [CMP-46],–,–,–,–,0,0%,0,–,0%,–,0%,0,–,significantly diminished responses
CCOC(=O)N1CCN(c2ncnc3c2oc2nc(CC(C)C)c4c(c23)CCCC4)CC1 [CMP-55],–,–,–,–,0,0%,0,–,0%,–,0%,0,–,–
KAPSGRMSIVKNLQNLDPSHRISDRDYMGWMDF [CCK-33],9.6,10.7,10.7,–,–,–,–,–,–,–,–,–,–,–
